Reference: ChEMBL document CHEMBL1155381, “Optimization of 5-vinylaryl-3-pyridinecarbonitriles as PKCtheta inhibitors” (Bioorg Med Chem Lett, 2010)
Values after ≈ are worked out from the molar mass of the structure shown.

Assays:
[1] = Aqueous solubility of compound; format: physicochemical; settings: buffer
[2] = Permeability by PAMPA; format: ADME; settings: read-out: permeability
[3] = Cmax in NZBWF1/J mouse at 25 mg/kg, po; format: ADME, organism-based; set-up: dose 25 mg/kg, route oral; settings: in vivo
[4] = AUC in NZBWF1/J mouse at 25 mg/kg, po; format: ADME, organism-based; set-up: dose 25 mg/kg, route oral; settings: plasma
Mus musculus = test: Cavg in NZBWF1/J mouse at 25 mg/kg, po; format: ADME, organism-based; set-up: dose 25 mg/kg, route oral; settings: in vivo

solubility [1]: 61 µg/mL (≈ 132 µM)
Papp [2]: 0.39 ×10⁻⁶ cm/s
Cmax [3]: 2200 nM
AUC [4]: 17.8 µM·h
Drug uptake (Mus musculus): 740 nM
Compound: Cc1c(Nc2c(C#N)cncc2/C=C/c2cccc(CN3CCN(C)CC3)n2)ccc2[nH]ccc12
